This note sets out measurements from patent US9315491B2 (DEVELOPMENT CENTER FOR BIOTECHNOLOGY, priority 2009, dated 2016).

Structures are written as SMILES.

This assay deals with PI3K (p110α/p85α) (Homo sapiens (Human), UniProt P42336). Briefly: PI3K HTRF enzyme assay, p110α/p85α. The format is biochemical. Conditions: read-out: % inhibition @ 500 nM p110α; compound at 500 nM, 10 μM ATP. On the procedure:
Recombinant PI3K (p110α/p85α) and PI3K (p110β/p85α) were from Millipore. […] Briefly, the compounds of interest dissolved in 100% DMSO were dispensed in all wells, following which the mixture of PIP2 and enzyme was added. PI3K (p110α/p85α) and PI3K (p110β/p85α) enzyme reactions were initiated in the presence of 10 μM and 100 μM ATP, respectively, and incubated for 30 min at room temperature. STOP solution prepared 2 hours prior to use was added to stop reactions, and mixed well. Detection solution prepared 2 hours prior to use was added, and incubated at room temperature for 17 hours in the dark. […] HTRF ration was calculated as follows: […]
Background: Time-resolved FRET reads energy transfer from a long-lived donor to a nearby acceptor.

Sequence of PI3K (p110α/p85α) (P42336 whole entry, species assumed): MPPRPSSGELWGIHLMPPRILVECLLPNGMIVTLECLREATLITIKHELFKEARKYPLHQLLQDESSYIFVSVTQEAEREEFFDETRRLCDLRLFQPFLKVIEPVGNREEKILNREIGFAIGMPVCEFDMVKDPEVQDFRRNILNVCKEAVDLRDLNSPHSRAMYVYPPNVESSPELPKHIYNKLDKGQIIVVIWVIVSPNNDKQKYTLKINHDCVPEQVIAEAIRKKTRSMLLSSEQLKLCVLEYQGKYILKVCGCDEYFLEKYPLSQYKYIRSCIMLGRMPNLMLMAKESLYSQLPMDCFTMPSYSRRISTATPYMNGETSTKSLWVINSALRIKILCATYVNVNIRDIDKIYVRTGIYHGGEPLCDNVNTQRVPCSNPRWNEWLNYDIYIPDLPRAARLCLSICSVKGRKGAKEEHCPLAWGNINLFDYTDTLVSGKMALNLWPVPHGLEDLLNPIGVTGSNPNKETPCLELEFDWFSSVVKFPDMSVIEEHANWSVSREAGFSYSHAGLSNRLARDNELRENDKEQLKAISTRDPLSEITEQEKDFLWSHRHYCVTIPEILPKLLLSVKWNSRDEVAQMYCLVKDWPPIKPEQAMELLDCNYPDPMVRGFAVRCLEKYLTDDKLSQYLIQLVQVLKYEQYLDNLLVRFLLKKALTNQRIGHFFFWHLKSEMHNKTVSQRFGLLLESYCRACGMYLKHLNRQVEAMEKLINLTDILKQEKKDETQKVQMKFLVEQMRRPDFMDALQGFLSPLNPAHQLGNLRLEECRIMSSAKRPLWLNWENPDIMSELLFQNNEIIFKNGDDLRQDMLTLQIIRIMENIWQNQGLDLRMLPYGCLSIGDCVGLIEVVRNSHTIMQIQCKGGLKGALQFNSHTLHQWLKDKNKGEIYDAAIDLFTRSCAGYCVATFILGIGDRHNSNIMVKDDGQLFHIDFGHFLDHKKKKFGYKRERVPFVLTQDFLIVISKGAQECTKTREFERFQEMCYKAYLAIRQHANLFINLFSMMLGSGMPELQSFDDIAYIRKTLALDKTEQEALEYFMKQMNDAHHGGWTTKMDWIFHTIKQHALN
Sequence of PI3K (p110α/p85α) (P27986 whole entry partner, species assumed): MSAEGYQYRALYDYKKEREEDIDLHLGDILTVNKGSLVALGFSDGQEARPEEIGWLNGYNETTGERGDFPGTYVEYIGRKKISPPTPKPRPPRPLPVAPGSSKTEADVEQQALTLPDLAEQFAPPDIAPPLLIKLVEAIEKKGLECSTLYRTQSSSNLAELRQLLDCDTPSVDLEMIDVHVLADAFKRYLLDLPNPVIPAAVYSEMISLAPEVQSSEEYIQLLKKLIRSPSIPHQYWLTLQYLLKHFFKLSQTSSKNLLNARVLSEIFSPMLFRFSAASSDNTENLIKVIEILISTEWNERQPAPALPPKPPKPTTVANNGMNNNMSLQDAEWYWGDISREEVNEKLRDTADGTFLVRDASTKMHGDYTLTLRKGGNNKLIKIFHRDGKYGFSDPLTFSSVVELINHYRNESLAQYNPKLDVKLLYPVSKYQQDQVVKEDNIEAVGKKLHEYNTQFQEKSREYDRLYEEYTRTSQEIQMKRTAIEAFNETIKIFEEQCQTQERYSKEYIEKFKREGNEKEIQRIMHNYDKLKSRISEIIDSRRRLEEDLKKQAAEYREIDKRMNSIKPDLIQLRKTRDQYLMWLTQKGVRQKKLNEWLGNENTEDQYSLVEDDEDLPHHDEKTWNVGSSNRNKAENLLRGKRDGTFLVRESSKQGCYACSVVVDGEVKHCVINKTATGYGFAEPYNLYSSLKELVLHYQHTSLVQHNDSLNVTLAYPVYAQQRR

Usually inhibition stands for the drop in the measured response relative to a control, in per cent. As to `COc1cnc(-c2ccc(NC(=O)Nc3ccccc3)cc2)nc1N1CCOCC1` [MTR-0128, 1-[4-(5-Methoxy-4-morpholin-4-yl-pyrimidin-2-yl)-phenyl]-3-phenyl-urea], the inhibition at 0.5 µM was determined as 85.8%.
In the case of `CSc1c(Cl)nc(-c2ccc(NC(=O)Nc3ccc(N4CCOCC4)c(F)c3)cc2)nc1N1CCOCC1` [MTR-0211, 1-[4-(4-Chloro-5-methylsulfanyl-6-morpholin-4-yl-pyrimidin-2-yl)-phenyl]-3-(3-fluoro-4-morpholin-4-yl-phenyl)-urea], the inhibition at 0.5 µM is 42%.
As for `CSc1c(Cl)nc(-c2ccc(NC(N)=O)cc2)nc1N1CCOCC1` [MTR-0083, [4-(4-Chloro-5-methylsulfanyl-6-morpholin-4-yl-pyrimidin-2-yl)-phenyl]-urea], the inhibition at 0.5 µM came out at 44.8%.
For `COc1cnc(-c2ccc(NC(=O)Nc3ccc(F)c(F)c3)cc2)nc1N1CCOCC1` [MTR-0165, 1-(3,4-Difluoro-phenyl)-3-[4-(5-methoxy-4-morpholin-4-yl-pyrimidin-2-yl)-phenyl]-urea], the inhibition at 0.5 µM was 101%.
Consider `COc1cnc(-c2ccc(NC(=O)Nc3ccc(N4CCOCC4=O)cc3)cc2)nc1N1CCOCC1` [MTR-0241, 1-[4-(5-Methoxy-4-morpholin-4-yl-pyrimidin-2-yl)-phenyl]-3-[4-(3-oxo-morpholin-4-yl)-phenyl]-urea], for which the inhibition at 0.5 µM was 94.8%.
For the compound `COc1cnc(-c2ccc(NC(=O)Nc3ccc(C(=O)O)cc3)cc2)nc1N1CCOCC1` [MTR-0351, 4-{3-[4-(5-Methoxy-4-morpholin-4-yl-pyrimidin-2-yl)-phenyl]-ureido}-benzoic acid], the inhibition at 0.5 µM was determined as 52.3%.
Turning to `CSc1cnc(-c2ccc(NC(=O)Nc3ccc(C(=O)N4CCOCC4)cc3)cc2)nc1N1CCOCC1` [MTR-0461, 1-[4-(5-Methylsulfanyl-4-morpholin-4-yl-pyrimidin-2-yl)-phenyl]-3-[4-(morpholine-4-carbonyl)-phenyl]-urea], the inhibition at 0.5 µM came out at 93.4%.
To `CSc1cnc(-c2ccc(NC(=O)Nc3ccc(S(C)(=O)=O)cc3)cc2)nc1N1CCOCC1` [MTR-0404, 1-(4-Methanesulfonyl-phenyl)-3-[4-(5-methylsulfanyl-4-morpholin-4-yl-pyrimidin-2-yl)-phenyl]-urea] belongs 66.9%; to `COc1cnc(-c2ccc(NC(=O)Nc3ccc(S(N)(=O)=O)cc3)cc2)nc1N1CCOCC1` [MTR-0283, 4-{3-[4-(5-Methoxy-4-morpholin-4-yl-pyrimidin-2-yl)-phenyl]-ureido}-benzenesulfonamide], 72.9%.
For the compound `COc1cnc(-c2ccc(NC(=O)Nc3ccc(N4CCSCC4)cc3)cc2)nc1N1CCOCC1` [MTR-0262, 1-[4-(5-Methoxy-4-morpholin-4-yl-pyrimidin-2-yl)-phenyl]-3-(4-thiomorpholin-4-yl-phenyl)-urea], the inhibition at 0.5 µM came out at 56.3%.
Turning to `COc1cnc(-c2ccc(NC(=O)Nc3ccc(N4CCOCC4)c(F)c3)cc2)nc1N1CCOCC1` [MTR-0242, 1-(3-Fluoro-4-morpholin-4-yl-phenyl)-3-[4-(5-methoxy-4-morpholin-4-yl-pyrimidin-2-yl)-phenyl]-urea], the inhibition at 0.5 µM stood at 96.3%.
Turning to `CCOc1cnc(-c2ccc(NC(=O)Nc3ccc(C(N)=O)cc3)cc2)nc1N1CCOCC1` [MTR-0323, 4-{3-[4-(5-Ethoxy-4-morpholin-4-yl-pyrimidin-2-yl)-phenyl]-ureido}-benzamide], the inhibition at 0.5 µM was 90.8%.
To `CCOc1cnc(-c2ccc(NC(=O)Nc3ccc(NC(C)=O)cc3)cc2)nc1N1CCOCC1` [MTR-0368, N-(4-{3-[4-(5-Ethoxy-4-morpholin-4-yl-pyrimidin-2-yl)-phenyl]-ureido}-phenyl)-acetamide] belongs 101%.
With `C[S+]([O-])c1cnc(-c2ccc(NC(=O)Nc3ccc(N4CCOCC4=O)cc3)cc2)nc1N1CCOCC1` (stereo not drawn) [MTR-0401, 1-[4-(5-Methanesulfinyl-4-morpholin-4-yl-pyrimidin-2-yl)-phenyl]-3-[4-(3-oxo-morpholin-4-yl)-phenyl]-urea], the inhibition at 0.5 µM amounted to 41.7%.
For `CSc1c(Cl)nc(-c2ccc(NC(=O)Nc3ccc(S(N)(=O)=O)cc3)cc2F)nc1N1CCOCC1` [MTR-0412, 4-{3-[4-(4-Chloro-5-methylsulfanyl-6-morpholin-4-yl-pyrimidin-2-yl)-3-fluoro-phenyl]-ureido}-benzenesulfonamide], the inhibition at 0.5 µM worked out at 82.7%.
The same measure for `COc1cnc(-c2ccc(NC(=O)Nc3cccnc3)cc2)nc1N1CCOCC1` [MTR-0228, 1-[4-(5-Methoxy-4-morpholin-4-yl-pyrimidin-2-yl)-phenyl]-3-pyridin-3-yl-urea]: 74.4%.
Regarding `COc1cnc(-c2ccc(NC(=O)Nc3ccc(C(N)=O)cc3)cc2F)nc1N1CCOCC1` [MTR-0407, 4-{3-[3-Fluoro-4-(5-methoxy-4-morpholin-4-yl-pyrimidin-2-yl)-phenyl]-ureido}-benzamide], the inhibition at 0.5 µM turned out to be 63.4%.
For `CCOc1cnc(-c2ccc(NC(=O)Nc3ccc(S(N)(=O)=O)cc3)cc2)nc1N1CCOCC1` [MTR-0326, 4-{3-[4-(5-Ethoxy-4-morpholin-4-yl-pyrimidin-2-yl)-phenyl]-ureido}-benzenesulfonamide], the inhibition at 0.5 µM is 90.7%.
To `CCOc1cnc(-c2ccc(NC(=O)Nc3ccncc3)cc2)nc1N1CCOCC1` [MTR-0446, 1-[4-(5-Ethoxy-4-morpholin-4-yl-pyrimidin-2-yl)-phenyl]-3-pyridin-4-yl-urea] belongs 66.3%.
As for `COc1cnc(-c2ccc(NC(=O)Nc3ccc(F)cc3)cc2)nc1N1CCOCC1` [MTR-0152, 1-(4-Fluoro-phenyl)-3-[4-(5-methoxy-4-morpholin-4-yl-pyrimidin-2-yl)-phenyl]-urea], the inhibition at 0.5 µM turned out to be 83%.
To `CCOc1c(C(=O)N2CCOCC2)nc(-c2ccc(NC(=O)Nc3ccccc3)cc2)nc1N1CCOCC1` [MTR-0124, 1-{4-[5-Ethoxy-4-(morpholine-4-carbonyl)-6-morpholin-4-yl-pyrimidin-2-yl]-phenyl}-3-phenyl-urea] belongs 49.1%.
As to `CCOc1cnc(-c2ccc(NC(=O)Nc3ccc(N4CCOCC4=O)cc3)cc2)nc1N1CCOCC1` [MTR-0325, 1-[4-(5-Ethoxy-4-morpholin-4-yl-pyrimidin-2-yl)-phenyl]-3-[4-(3-oxo-morpholin-4-yl)-phenyl]-urea], the inhibition at 0.5 µM was found to be 91.5%.
For the compound `CCOC(=O)c1nc(-c2ccc(NC(=O)Nc3ccc(S(N)(=O)=O)cc3)cc2)nc(N2CCOCC2)c1OCC` [MTR-0273, 5-Ethoxy-6-morpholin-4-yl-2-{4-[3-(4-sulfamoyl-phenyl)-ureido]-phenyl}-pyrimidine-4-carboxylic acid ethyl ester], the inhibition at 0.5 µM is 50.2%.
As to `COc1cnc(-c2ccc(NC(=O)Nc3ccc(N4CCOCC4=O)cc3)cc2F)nc1N1CCOCC1` [MTR-0406, 1-[3-Fluoro-4-(5-methoxy-4-morpholin-4-yl-pyrimidin-2-yl)-phenyl]-3-[4-(3-oxo-morpholin-4-yl)-phenyl]-urea], the inhibition at 0.5 µM worked out at 78.4%.
As to `CSc1c(Cl)nc(-c2ccc(NC(=O)Nc3ccc(S(C)(=O)=O)cc3)cc2)nc1N1CCOCC1` [MTR-0387, 1-[4-(4-Chloro-5-methylsulfanyl-6-morpholin-4-yl-pyrimidin-2-yl)-phenyl]-3-(4-methanesulfonyl-phenyl)-urea], the inhibition at 0.5 µM is 83.1%.
Turning to `COc1cnc(-c2ccc(NC(=O)Nc3cccc(C(N)=O)c3)cc2)nc1N1CCOCC1` [MTR-0313, 3-{3-[4-(5-Methoxy-4-morpholin-4-yl-pyrimidin-2-yl)-phenyl]-ureido}-benzamide], the inhibition at 0.5 µM was 86.9%.
Consider `COc1cnc(-c2ccc(NC(=O)Nc3ccc(N4CCOCC4=O)cc3)c(F)c2)nc1N1CCOCC1` [MTR-0405, 1-[2-Fluoro-4-(5-methoxy-4-morpholin-4-yl-pyrimidin-2-yl)-phenyl]-3-[4-(3-oxo-morpholin-4-yl)-phenyl]-urea], for which the inhibition at 0.5 µM worked out at 52.5%.
Consider `COc1cnc(-c2ccc(NC(=O)Nc3cccc(NC(C)=O)c3)cc2)nc1N1CCOCC1` [MTR-0426, N-(3-{3-[4-(5-Methoxy-4-morpholin-4-yl-pyrimidin-2-yl)-phenyl]-ureido}-phenyl)-acetamide], for which the inhibition at 0.5 µM is 58.4%.
`COc1cnc(-c2ccc(NC(=O)Nc3ccc(NS(C)(=O)=O)cc3)cc2)nc1N1CCOCC1` [MTR-0449, N-(4-{3-[4-(5-Methoxy-4-morpholin-4-yl-pyrimidin-2-yl)-phenyl]-ureido}-phenyl)-methanesulfonamide]: the inhibition at 0.5 µM was 75.4%.
Turning to `CCOC(=O)c1nc(-c2ccc(NC(=O)Nc3ccc4oc(=O)[nH]c4c3)cc2)nc(N2CCOCC2)c1OCC` [MTR-0299, 5-Ethoxy-6-morpholin-4-yl-2-{4-[3-(2-oxo-2,3-dihydro-benzooxazol-5-yl)-ureido]-phenyl}-pyrimidine-4-carboxylic acid ethyl ester], the inhibition at 0.5 µM was found to be 44.3%.
Take `CSc1c(-c2ccncc2)nc(-c2ccc(NC(=O)Nc3ccc(N4CCOCC4=O)cc3)cc2)nc1N1CCOCC1` [MTR-0391, 1-[4-(5-Methylsulfanyl-4-morpholin-4-yl-6-pyridin-4-yl-pyrimidin-2-yl)-phenyl]-3-[4-(3-oxo-morpholin-4-yl)-phenyl]-urea]: the inhibition at 0.5 µM came out at 51.7%.
Turning to `O=C(Nc1ccc(C(=O)N2CCOCC2)cc1)Nc1ccc(-c2ncc(OCCN3CCOCC3)c(N3CCOCC3)n2)cc1` [MTR-0454, 1-[4-(Morpholine-4-carbonyl)-phenyl]-3-{4-[4-morpholin-4-yl-5-(2-morpholin-4-yl-ethoxy)-pyrimidin-2-yl]-phenyl}-urea], the inhibition at 0.5 µM worked out at 74.4%.
The same measure for `CCOC(=O)c1nc(-c2ccc(NC(=O)Nc3ccc(C(=O)N4CCN(C)CC4)cc3)cc2)nc(N2CCOCC2)c1OCC` [MTR-0274, 5-Ethoxy-2-(4-{3-[4-(4-methyl-piperazine-1-carbonyl)-phenyl]-ureido}-phenyl)-6-morpholin-4-yl-pyrimidine-4-carboxylic acid ethyl ester]: 59%.
